Results reported in patent US20230346948A1, “Lipid conjugated peptide inhibitors of PICK1” (University of Copenhagen, priority 2020, published 2023).
Several values for one entry are separate records, joined by “and”; a condition that tells them apart may be missing. Equal entries are not always repeated. Entries after “also recorded” stand apart in the source; their conditions may differ. Where two headings read alike, the source gives them in different places.

Legend:
[1] = test system: thermal hypersensitivity (CFA model); experiment: Hargreaves test, thermal hypersensitivity in CFA model; type: in vivo, mice; details: s.c. 10 μmol/kg
Method: Inflammatory pain (CFA model): Animals were habituated to the experimental room for a minimum of 60 min before initiation of the experiment. Hargreave's test was performed by application of radiant heat light to the plantar surface of both hindpaw. The response latency was measured by an automated readout (Ugo Basile, Italy). The baseline paw withdrawal latency of both hind paws in response to radiant heat stimulation was performed before CFA injection, and no difference between the two pre-selected groups was found. The inflammatory pain was induced by […] of 50 μL undiluted Complete Freund's Adjuvant (CFA) ([…], Sigma) unilaterally into the intraplantar surface of the right hind paw, whereas control mice were injected with the same amount of 0.9% saline (B. Braun, Germany). All intraplantar injections were performed with and insulin needle (0.3 mL BD Micro-Fine) while the animal was under isoflurane anesthesia (2%) for maximum 60 seconds. On day 3 after CFA injection, mice were placed in individual red cylinders (8 cm in diameter, 7.5 cm tall) and thermal hyperalgesia was confirmed by a baseline reading with IR of 20. Three measurements were performed on each hindpaw of each mouse. A positive trial was defined as sudden paw withdrawal, flinching and/or paw licking induced by the infrared light. Measurements were performed before CFA injection, and at 3+4 days after CFA injection. At day 3, the measurements were performed before treatment, as well as 1, 5 and 21 hours after treatment. Peptide and vehicle were administered s.c. (10 μL/g)), and at a concentration of 0 or 10 μmol/kg. Statistical analysis was performed using GraphPad Prism 6.0. Two-way RM ANOVA followed by Bonferroni's post-hoc test. Significance level set to p<0.05.

[2] = test system: diabetic neuropathy (STZ model); details: for maximum reversal of mechanical response threshold: 2 h post-administration
Method: Diabetic neuropathy (STZ) model. Diabetes is induced by a single IP injection of […]. Streptozocin solution (100 μl/10 g, Sigma-aldrich S0130, batch #WXBB7152V). Glycemia is tested before, and 7 days after injection.
The mechanical threshold response of the operated mice was measured with calibrated von Frey filaments (“up/down” method) and the 50% threshold (g) was calculated. The experimenter was blinded to mice treatment. […] Compounds were diluted in PBS (vehicle) and administered s.c. at 10 μL/g, in doses as indicated (gabapentine, 5MPK). Statistical analysis was performed using GraphPad Prism 6.0.

[3] = test system: inflammatory pain (CFA model); experiment: Complete Freund's Adjuvant (CFA) model of inflammatory pain, von Frey; type: in vivo, mice; details: for relief of evoked pain (paw withdrawal threshold): day 2 after CFA
Method: Inflammatory pain: Animals were habituated to the experimental room for a minimum of 60 min before initiation of the experiment. Mechanical pain threshold was determined by von Frey measurements of both hind paws. Injury was induced on the right hind paw, whereas the contralateral left hind paw was used as internal control of the animal. Von Frey filaments ranging from 0.04 to 2 g (g=gram-forces) (0.04, 0.07, 0.16, 0.4, 0.6, 1.0, 1.4, 2.0) were used for determination of mechanical pain threshold. In the current experiment filaments in ascending order were applied to the frontocentral plantar surface of the hind paws. Mice were placed in PVC plastic boxes (11.5 cm×14 cm) on a wire mesh, and allowed 30 min habituation prior of […]. Each von Frey hair was applied five times with adequate resting periods between each application and number of withdrawals recorded. The withdrawal threshold was determined as the von Frey filament eliciting at least 3 positive trials out of the 5 applications in two consecutive filaments. A positive trial was defined as sudden paw withdrawal, flinching and/or paw licking induced by the filament. The inflammatory pain was induced by injection of 50 μL undiluted Complete Freund's Adjuvant (CFA) (F5881, Sigma) unilaterally into the intraplantar surface of the right hind paw, whereas control mice were injected with the same amount of 0.9% saline (B. Braun, Germany). All intraplantar injections were performed with and insulin needle (0.3 mL BD Micro-Fine) while the animal was under isoflurane anesthesia (2%) for maximum 60 seconds. Von Frey was applied up to 11 days after unilateral CFA injection depending on the experiment. […] Statistical analysis was performed using GraphPad Prism 6.0. Two-way RM ANOVA followed by Bonferroni's post-hoc test. Significance level set to p<0.05.
Inflammatory pain (CFA model): Animals were habituated to the experimental room for a minimum of 60 min before initiation of the experiment. Mechanical pain threshold was determined by von Frey measurements of both hind paws. Injury was induced on the right hind paw, whereas the contralateral left hind paw was used as internal control of the animal.
Von Frey filaments ranging from 0.04 to 2 g (g=gram-forces) (0.04, 0.07, 0.16, 0.4, 0.6, 1.0, 1.4, 2.0) were used for determination of mechanical pain threshold. In the current experiment filaments in ascending order were applied to the frontocentral plantar surface of the hind paws. Mice were placed in PVC plastic boxes (11.5 cm×14 cm) on a wire mesh, and allowed 30 min habituation prior of testing. Each von Frey hair was applied five times with adequate resting periods between each application and number of withdrawals recorded. The withdrawal threshold was determined as the von Frey filament eliciting at least 3 positive trials out of the 5 applications in two consecutive filaments. A positive trial was defined as sudden paw withdrawal, flinching and/or paw licking induced by the filament.
The inflammatory pain was induced by injection of 50 μL undiluted Complete Freund's Adjuvant (CFA) (F5881, Sigma) unilaterally into the intraplantar surface of the right hind paw, whereas control mice were injected with the same amount of 0.9% saline (B. Braun, Germany). All intraplantar injections were performed with an insulin needle (0.3 mL BD Micro-Fine) while the animal was under isoflurane anesthesia (2%) for maximum 60 seconds. Von Frey was applied up to 6 days after unilateral CFA injection depending on the experiment. The peptides were administered s.c. (10 μL/g)), and at different concentrations (0.4 and 2 μmol/kg). Statistical analysis was performed using GraphPad Prism 6.0. Two-way RM ANOVA followed by Dunnett's post-hoc test. Significance level set to p<0.05.

[4] = Solubility by visual inspection in PBS; type: physicochemical

CCCCCCCCCCCCCC(=O)N(CCOCCOCCC(=O)N[C@@H](Cc1c[nH]cn1)C(=O)N[C@@H](Cc1c[nH]c2ccccc12)C(=O)N[C@@H](CC(C)C)C(=O)N[C@@H](CCCCN)C(=O)N[C@H](C(=O)O)C(C)C)CCOCCOCCC(=O)N[C@@H](Cc1c[nH]cn1)C(=O)N[C@@H](Cc1c[nH]c2ccccc12)C(=O)N[C@@H](CC(C)C)C(=O)N[C@@H](CCCCN)C(=O)N[C@H](C(=O)O)C(C)C [myr-NPEG4-(HWLKV)2]
pain relief (paw withdrawal latency), sensitized paw ([1]; 5 hours): less pronounced
paw withdrawal latency, contralateral (healthy) paw ([1]; day 3 after CFA): no significant changes
paw withdrawal latency, sensitized (ipsilateral) paw ([1]; day 3 after CFA): highly significant increase in paw withdrawal latency
pain relief (paw withdrawal latency), sensitized paw ([1]; following day (21 h)): fully dissolved
analgesic effect ([2]; s.c. 2 μmol/kg): weaker effect
maximum reversal of mechanical response threshold ([2]; s.c. 2 μmol/kg): 49.2±7.9 % of baseline
analgesic effect ([2]; s.c. 10 μmol/kg): strong and long-lasting effect up to 4 h
maximum reversal of mechanical response threshold ([2]; s.c. 10 μmol/kg): 67.3±4.5 % of baseline
paw withdrawal threshold of uninjured contralateral paw ([3]; CFA model, Example 7): remained unaltered
relief of evoked pain (paw withdrawal threshold) ([3]; intrathecal 20 μM, 7 μL, 1 and 5 h): significant pain relief at 1 hour and 5 hours
relief of evoked pain (paw withdrawal threshold) ([3]; intrathecal 20 μM, 7 μL, 24 h): no effect 24 hours after administration
relief of evoked pain (paw withdrawal threshold), lipid variants ([3]; s.c. 2.0 μmol/kg in PBS, day 2-5 after CFA, tested 2 and 5 h): full and highly significant pain relief
relief of evoked pain (paw withdrawal threshold) ([3]; s.c. 2 μmol/kg, tested 1, 5, 24 h): significant pain relief when tested 1 hour post injection
relief of evoked pain (paw withdrawal threshold), PDZ motif variants ([3]; s.c. 2 μmol/kg, day 5 after CFA): relieved pain
relief of evoked pain (paw withdrawal threshold) ([3]; s.c. 10 μmol/kg, tested 1, 5, 24 h): significant pain relief when tested 1 hour post injection
relief of evoked pain (paw withdrawal threshold) ([3]; s.c. 50 μmol/kg, tested 1, 5, 24 h): significant pain relief when tested 1 hour post injection; also recorded: significant pain relief up to 5 hours post injection
solubility [4]: ≥ 130000 µM and 250000 µg/mL
